The values that follow come from US20240190821A1, “SULFONAMIDE SUBSTITUTED N-(1H-INDOL-7-YL)BENZENESULFONAMIDES AND USES THEREOF” (Triana Biomedicines, Inc., priority 2021, published 2024).

One experiment has as its target T1, RBM39 (Homo sapiens, UniProt Q14498+Q66K64).
T1 construct: endogenous in cells; host or cells: HCT116
The experiment can be described thus: Western blot assay for degradation of RBM39 in HCT116 cells. It is filed as cell-based. The settings on record: HCT116, 4 h. On the procedure: Example 107: Western Blot Assay Procedure for Assessing Degradation of RBM39 in HCT116 Cells
HCT116 cells were used with passage numbers ranging from 13 to 25. Cells were seeded in 12-well plated at a density of 1 million cells per well in 1 mL cell culture medium containing McCoy's 5A medium (Cat. #16600082, ThermoFisher, Waltham, MA), 10% Fetal Bovine Serum (Cat. #26140, ThermoFisher, Waltham, MA) and 1% Pen-Strep (Cat. #. 15070063, ThermoFisher, Waltham, MA) and incubated overnight. The next morning, compounds were serially diluted (1:3, 9 points) in the medium separately and were prepared 2× the final assay concentration. Subsequently, 1.0 mL medium containing DMSO or the appropriate concentration of each compound was added to respective wells. The final DMSO concentration in each well was 0.1%. […] Cells were then washed once with 1 mL of ice cold Dulbecco's phosphate-buffered saline (Cat. #28374, ThermoFisher, Waltham, MA) and then lysed with 100 μl of lysis buffer containing 1× RIPA (Cat. #. 89900, ThermoFisher, Waltham, MA) and HALT protease and phosphatase inhibitor (Cat. #78442, ThermoFisher, Waltham, MA) on ice for 10 minutes with intermittent rocking. Lysates were then sonicated in a sonication bath (3 pulses of 10 sec each with 1 min incubation on ice between each pulse). Samples were then centrifuged for 20 min at 14,000 rpm for 20 min. Supernatants were then transferred to fresh microfuge tubes and stored frozen at −80° C. until use. Total protein quantitation in lysate samples was done using the BCA protein quantitation kit following the manufacturer's instructions. For polyacrylamide gel electrophoresis, each sample ([…] total protein), was diluted with Laemmli sample buffer (Cat. #. 1610747, BioRad, Hercules, CA) by adding 9 ul of lysate to 3 ul of sample buffer containing 10% β-mercaptoethanol. Samples were then denatured at 95° C. for 5 minutes in a heat block, centrifuged at 14,000 rpm for 5 min, and placed on ice. Subsequently, 12 ul of each sample was loaded on 4-20% Tris/Glycine gels and electrophoresed in 1×Tris/Glycine SDS buffer at 80 (constant) volts for 2 h. Resolved samples were then transferred from gels to PVDF membrane using the BioRad Turbo-transfer unit with the Turbo default program (Cat. #. 1704150EDU, BioRad, Hercules, CA). For immunoblotting, membranes were first blocked for 1 hour at room temperature using Odyssey Blocking Buffer (Cat. #: 927-60001, Li-cor, Lincoln, NE) with continuous rocking. Membrane was then incubated with primary antibodies, anti-RBM39 (Sigma Cat. #: HPA001591, St. Louis, MO) and anti-β-actin (Cell Signaling Cat. #3700S, Danvers, MA), diluted 1000 fold each, at 4° C. for overnight. Subsequently, membrane was washed three times for at room temperature with continuous rocking (5 minutes each wash) using TBS buffer containing 0.1% Tween-20. After the final wash, secondary antibodies, IRDye 680 RD Goat anti Mouse IgG H+L (Cat. #: 926-68070, Li-cor, Lincoln, NE), and IRDye 800CW Goat anti Rabbit IgG H+L (Cat. #: 926-32211, Li-cor, Lincoln, NE), each diluted 10,000-fold, were added to the membranes and incubated at room temperature for 1 h with continuous rocking. Membranes were then washed 3 times with 1×TBS and scanned using Odessey CLx imaging system (Li-cor, Lincoln, NE) using default settings. Band intensity in images was quantified using the Image Studio Lite software (Version 5.2). Signal intensity for RBM-39 specific bands were normalized using the signal intensity for β-actin-specific band, and percent degradation was assessed by comparing RBM39 signal in compound-treated vs. DMSO-treated samples.

Another experiment has as its system HCT116 cells. The experiment can be described thus: HCT116 cell viability using CellTiter-Glo. As to conditions: read-out: 3-Day CTG IC50 in HCT116. It is filed as cell-based. On the procedure:
Example 108: Measurement of HCT116 Cell Viability Using CellTiter-Glo
HCT116 cells with the passage number ranging from 13 to 25 were plated in an opaque-walled 384 well plate (Corning, Cat. #3765, Corning, NY) at a density of 1000 cells/well in 50 μl medium containing McCoy's 5A medium (Cat. #16600082, ThermoFisher, Waltham, MA), 10% Fetal Bovine Serum (Cat. #26140, ThermoFisher, Waltham, MA) and 1% Pen-Strep (Cat. #. 15070063, ThermoFisher, Waltham, MA). After overnight incubation, cells were treated with various concentrations of compounds (0-10 μM) in DMSO (final concentration of 0.2% DMSO) for 72 h. CellTiter-Glo® Reagent (Cat. #G7573, Promega, Waltham, MA) was then added to all wells. The plates were placed on an orbital shaker to mix the content and induce cell lysis. The plates were then incubated at room temperature for 10 minutes to stabilize luminescent signal. The luminescence was recorded using Envision multilabel plate reader (Perkin-Elmers, Waltham, MA) and the data was fit by using Excel-fit (Microsoft, Redmond, WA).
(ATP-based viability assays read luminescence as a measure of living cells.)

For experiment [1], the target named is T2, DCAF15-RBM39 ternary complex (Homo sapiens, UniProt Q14498+Q66K64).
T2 construct: (RRM2)
Briefly: Compound-induced DCAF15-RBM39 ternary complex formation, AlphaLISA. Format: biochemical. The settings on record: AlphaLISA, His-tagged DCAF15 complex and biotin-carrying RBM39; read-out: Ternary-RBM39 (RRM2) EC50. The essentials:
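Protein mixture incubated with compounds for one hour at room temperature; AlphaLISA beads then added sequentially, 1-2 h at room temperature after each. No-compound wells served as negative controls; His-tagged biotinylated GST tracked assay performance.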

The target of another experiment is DCAF15 (Homo sapiens, UniProt Q66K64). The experiment can be described thus: Binary interaction between compounds and DCAF15, HTRF competition assay. Format: binding. As to conditions: HTRF competition with Alexa Fluor 647 tracer, His-tagged DCAF15 complex; read-out: DCAF15 IC50. The essentials: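 HTRF competition format: DCAF15 premixed 15 min at room temperature with anti-6His-Eu cryptate antibody, then combined with tracer and compound. Binding derived from ratiometric signal with titration curves; no-DCAF15 wells as controls.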
A general note: In TR-FRET formats the signal depends on donor and acceptor labels being close together.

Where [2] appears, read: Homo sapiens, HCT-116, HCT116, 72 h.

Molecules are shown by their SMILES. pEC50, pIC50: −log10 of the molar value. Where two headings read alike, the source gives them in different places. Some results are limits rather than exact numbers.

For orientation: DC50 means the midpoint of the concentration-degradation curve. A low value points to a more potent degrader. The term pIC50 denotes the negative decadic logarithm of the IC50, by convention in mol/L. Broadly, the pEC50 is the negative decadic logarithm of the EC50, by convention in mol/L.

T2 sequence (Q66K64 whole entry): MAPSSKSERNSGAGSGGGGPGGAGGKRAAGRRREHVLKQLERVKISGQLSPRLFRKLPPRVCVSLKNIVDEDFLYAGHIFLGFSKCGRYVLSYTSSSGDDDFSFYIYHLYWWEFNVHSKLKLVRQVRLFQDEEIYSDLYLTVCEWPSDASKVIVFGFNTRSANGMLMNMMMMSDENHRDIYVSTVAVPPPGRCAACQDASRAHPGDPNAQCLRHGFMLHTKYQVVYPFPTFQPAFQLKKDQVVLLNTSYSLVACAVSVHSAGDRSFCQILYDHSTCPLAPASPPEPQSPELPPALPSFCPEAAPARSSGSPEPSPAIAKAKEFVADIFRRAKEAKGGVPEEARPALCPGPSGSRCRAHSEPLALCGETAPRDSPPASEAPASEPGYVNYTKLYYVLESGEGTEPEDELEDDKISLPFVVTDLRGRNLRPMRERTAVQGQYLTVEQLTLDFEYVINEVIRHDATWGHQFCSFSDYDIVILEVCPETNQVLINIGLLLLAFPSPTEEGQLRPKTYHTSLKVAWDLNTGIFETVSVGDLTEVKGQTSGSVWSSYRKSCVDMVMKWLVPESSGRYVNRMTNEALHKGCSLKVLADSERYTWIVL
T2 sequence (Q14498 250-328 limits assumed): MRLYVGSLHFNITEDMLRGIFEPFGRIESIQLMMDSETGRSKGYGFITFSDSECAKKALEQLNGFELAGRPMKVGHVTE
T2 sequence (Q16531 whole entry partner): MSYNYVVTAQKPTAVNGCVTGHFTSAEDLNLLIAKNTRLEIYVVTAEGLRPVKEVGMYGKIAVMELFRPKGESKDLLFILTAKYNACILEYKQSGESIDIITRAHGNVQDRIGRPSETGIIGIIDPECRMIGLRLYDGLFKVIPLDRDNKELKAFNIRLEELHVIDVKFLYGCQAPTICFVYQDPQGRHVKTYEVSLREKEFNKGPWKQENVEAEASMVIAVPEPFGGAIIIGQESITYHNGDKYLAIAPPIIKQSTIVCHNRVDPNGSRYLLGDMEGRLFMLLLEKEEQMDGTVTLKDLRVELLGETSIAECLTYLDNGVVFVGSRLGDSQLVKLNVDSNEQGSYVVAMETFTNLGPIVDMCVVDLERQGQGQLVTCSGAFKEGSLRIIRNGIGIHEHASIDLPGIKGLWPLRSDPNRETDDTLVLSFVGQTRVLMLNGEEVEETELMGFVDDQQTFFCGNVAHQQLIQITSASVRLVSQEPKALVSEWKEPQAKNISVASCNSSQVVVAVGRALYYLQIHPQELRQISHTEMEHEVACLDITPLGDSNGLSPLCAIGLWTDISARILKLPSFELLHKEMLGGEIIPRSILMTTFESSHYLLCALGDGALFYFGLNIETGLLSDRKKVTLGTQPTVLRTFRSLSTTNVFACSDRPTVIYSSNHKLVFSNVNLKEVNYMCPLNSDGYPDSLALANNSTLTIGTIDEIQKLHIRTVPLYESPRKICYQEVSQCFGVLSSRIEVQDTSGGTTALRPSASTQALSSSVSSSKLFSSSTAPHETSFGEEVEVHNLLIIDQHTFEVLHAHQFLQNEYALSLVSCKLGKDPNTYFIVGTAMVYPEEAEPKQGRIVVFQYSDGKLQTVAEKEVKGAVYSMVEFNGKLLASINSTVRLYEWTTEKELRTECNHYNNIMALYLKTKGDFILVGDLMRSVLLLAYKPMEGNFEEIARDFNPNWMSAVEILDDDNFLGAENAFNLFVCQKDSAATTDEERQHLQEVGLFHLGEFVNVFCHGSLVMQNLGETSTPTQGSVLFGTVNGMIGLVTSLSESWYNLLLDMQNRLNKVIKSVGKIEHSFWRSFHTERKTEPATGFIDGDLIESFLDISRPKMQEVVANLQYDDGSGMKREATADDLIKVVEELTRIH
DCAF15, sequence (Q66K64 whole entry): as the sequence (Q66K64 whole entry) above
DCAF15, sequence (Q16531 whole entry partner): as the sequence (Q16531 whole entry partner) above

On RBM39, `O=S(=O)(Nc1ccc(Cl)c2c(Cl)c[nH]c12)c1ccc(S(=O)(=O)N2CCNCC2)cc1` [Compound 42, N-(3,4-dichloro-1H-indol-7-yl)-4-(piperazin-1-ylsulfonyl)benzenesulfonamide] gave a DC50 below 1000 nM. The pIC50 in the experiment on HCT116 cells (setting [2]) was above 7.00. Also, the pEC50 in experiment [1] was above 6.00.

Regarding `Nc1ccc(S(=O)(=O)Nc2cnc3c(Cl)cccc3n2)cc1` [CQS, cloroquinoxaline sulfonamide, reference compound], the DC50 at RBM39 was below 100 nM. Besides, the pIC50 in the experiment with HCT116 cells (HCT116, 72 h) was above 5.30. The pEC50 in experiment [1] was above 5.30.

Consider `COC(=O)CNS(=O)(=O)c1ccc(S(=O)(=O)Nc2ccc(Cl)c3c(Cl)c[nH]c23)cc1` [Compound 1, methyl ((4-(N-(3,4-dichloro-1H-indol-7-yl)sulfamoyl)phenyl)sulfonyl) glycinate], for which the negative logarithm of the IC50 (pIC50) at DCAF15 is above 4.00; with HCT116 cells (setting [2]), above 6.00. The same compound yielded a DC50 on RBM39 below 1000 nM. Further, the pEC50 in experiment [1] was above 6.00.
